US8637526B2, “Pyrazolopyrimidine JAK inhibitor compounds and methods” (Genentech, Inc., priority 2008, dated 2014)

What was measured:
[1] = system: Set-2 cells, which express the JAK2V617F mutant protein; assay: STAT5 phosphorylation in Set-2 cells (JAK2-dependent signaling, MSD); format: cell-based; conditions: Homo sapiens, SET-2, 1 h, read-out: pSTAT5 SET2 EC50
Procedure: The activities of compounds were determined in cell-based assays that are designed to measure JAK2-dependent signaling or proliferation. Compounds were serially diluted in DMSO and incubated with Set-2 cells (German Collection of Microorganisms and Cell Cultures (DSMZ); Braunschweig, Germany), which express the JAK2V617F mutant protein, in 96-well microtiter plates for 1 hr at 37° C. in RPMI medium at a final cell density of 100,000 cells per well and a final DMSO concentration of 0.57%. Compound-mediated effects on STATS phosphorylation were then measured in the lysates of incubated cells using the Meso Scale Discovery (MSD) technology (Gaithersburg, Md.) according to the manufacturer's protocol and EC50 values were determined. Alternatively, serially diluted compounds were added to 384-well microtiter plates in RPMI medium with 10% fetal bovine serum (Invitrogen Corp.; Carlsbad, Calif.) at a final cell density of 2500 cells per well and a final DMSO concentration of 0.3% and incubated at 37° C. for 72 hours. Cell viability was then determined using the CellTiter-Glo® Luminescent Cell Viability Assay according to the manufacturer's protocol (Promega; Madison, Wis.) and EC50 values were determined.

TF-1 cells [2] = assay: IL-6-stimulated STAT3 phosphorylation in TF-1 cells (JAK1-dependent signaling, MSD); format: cell-based; conditions: Homo sapiens, TF-1, 0.5 h, read-out: IL6-pSTAT3 TF1 EC50
Procedure: (§1) The activities of compounds were determined in cell-based assays that are designed to measure JAK1 or JAK2-dependent signaling. Compounds were serially diluted in DMSO and incubated with TF-1 cells (American Type Culture Collection (ATCC); Manassas, Va.) in 384-well microtiter plates in OptiMEM medium without phenol red, 1% Charcoal/Dextran stripped FBS, 0.1 mM NEAA, 1 mM sodium pyruvate (Invitrogen Corp.; Carlsbad, Calif.) at a final cell density of 100,000 cells per well and a final DMSO concentration of 0.2%. Human recombinant IL-6 (R&D systems; Minneapolis, Minn.) or EPO (Invitrogen Corp.; Carlsbad, Calif.) was then added at a final concentration of 30 ng/mL or 10 Units/mL, respectively, to the microtiter plates containing the TF-1 cells and compound and the plates were incubated for 30 min at 37° C. Compound-mediated effects on STAT3 or STATS phosphorylation were then measured in the lysates of cells incubated in the presence of IL-6 or EPO, respectively, using the Meso Scale Discovery (MSD) technology (Gaithersburg, Md.) according to the manufacturer's protocol and EC50 values were determined.

NK92 cells = assay: IL-12-stimulated STAT4 phosphorylation in NK92 cells (TYK2-dependent signaling, MSD); format: cell-based; conditions: NK92, 1 h, read-out: IL12-pSTAT4 NK92 EC50
Procedure: The activities of compounds were determined in cell-based assays that are designed to measure TYK2-dependent signaling. Compounds were serially diluted in DMSO and incubated with NK92 cells (American Type Culture Collection (ATCC); Manassas, Va.) in 96-well microtiter plates in RPMI medium at a final cell density of 100,000 cells per well and a final DMSO concentration of 0.57%. Human recombinant IL-12 (R&D systems; Minneapolis, Minn.) was then added at a final concentration of 10 ng/mL to the microtiter plates containing the NK92 cells and compound and the plates were incubated for 1 hr at 37° C. Compound-mediated effects on STAT4 phosphorylation were then measured in the lysates of incubated cells using the Meso Scale Discovery (MSD) technology (Gaithersburg, Md.) according to the manufacturer's protocol and EC50 values were determined

human JAK1 kinase domain = human JAK1 kinase domain (Homo sapiens (Human), UniProt P23458); assay: JAK1 Inhibition Assay Protocol (Caliper LabChip peptide phosphorylation); format: biochemical; conditions: enzymatic activity, 25 uM ATP
human JAK1 kinase domain, sequence (P23458 852-1154): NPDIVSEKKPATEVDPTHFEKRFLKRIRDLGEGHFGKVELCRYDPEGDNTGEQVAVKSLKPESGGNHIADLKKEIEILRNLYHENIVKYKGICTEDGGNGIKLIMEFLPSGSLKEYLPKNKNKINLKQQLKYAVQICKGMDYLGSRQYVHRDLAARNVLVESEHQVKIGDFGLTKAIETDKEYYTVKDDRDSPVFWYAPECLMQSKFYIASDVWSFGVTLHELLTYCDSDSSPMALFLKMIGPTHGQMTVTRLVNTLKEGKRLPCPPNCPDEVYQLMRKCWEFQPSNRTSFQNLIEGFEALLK
From the text: The catalytically active kinase domain of human JAK1, JAK2, JAK3 or TYK2 was purified from extracts of SF9 insect cells infected with a recombinant baculovirus expression vector encoding the human JAK1, JAK2, JAK3 or TYK2 kinase domains (JAK1 amino acid residues N852-D1154 according to the numbering of GenBank sequence accession number P23458, JAK2 amino acid residues D812-G1132 according to the numbering of GenBank sequence accession number NP_004963.1; JAK3 amino acid residues S783-S1124 according to the numbering of GenBank sequence accession number P52333, and TYK2 amino acid residues N873-C1187 according to the numbering of GenBank sequence accession number P29597). The activity of the JAK1, JAK2, JAK3 or TYK2 kinase domains can be measured by a number of direct and indirect methods, including quantification of phosphorylation of peptide substrates derived from the human JAK3 protein (Saltzman et al., Biochem. Biophys. Res. Commun. 246:627-633 (2004)). The activity of the JAK1, JAK2, JAK3 or TYK2 kinase domains was measured in vitro by monitoring phosphorylation of JAK3 derived peptides using the Caliper LabChip technology.
(§2) The activity of the isolated JAK1 or TYK2 kinase domain was measured by monitoring phosphorylation of a peptide derived from JAK3 ([…] fluorescently labeled on the N-terminus with 5-carboxyfluorescein using the Caliper LabChip technology (Caliper Life Sciences, Hopkinton, Mass.). […] Reactions were incubated at 22° C. in 384-well polypropylene microtiter plates for 30 minutes and then stopped by addition of 25 uL of an EDTA containing solution (100 mM Hepes pH 7.2, 0.015% Brij-35, 150 mM EDTA), resulting in a final EDTA concentration of 50 mM. After termination of the kinase reaction, the proportion of phosphorylated product was determined as a fraction of total peptide substrate using the Caliper LabChip 3000 according to the manufacturer's specifications. Ki values were then determined using the Morrison tight binding model (Morrison, J. F., Biochim. Biophys. Acta. 185:269-296 (1969); William, J. W. and Morrison, J. F., Meth. Enzymol., 63:437-467 (1979)).

human JAK3 kinase domain = human JAK3 kinase domain (Homo sapiens (Human), UniProt P52333); assay: biochemical; format: biochemical; conditions: enzymatic activity, 5 uM ATP; read-out: JAK3 Ki
human JAK3 kinase domain, sequence (P52333 783-1124): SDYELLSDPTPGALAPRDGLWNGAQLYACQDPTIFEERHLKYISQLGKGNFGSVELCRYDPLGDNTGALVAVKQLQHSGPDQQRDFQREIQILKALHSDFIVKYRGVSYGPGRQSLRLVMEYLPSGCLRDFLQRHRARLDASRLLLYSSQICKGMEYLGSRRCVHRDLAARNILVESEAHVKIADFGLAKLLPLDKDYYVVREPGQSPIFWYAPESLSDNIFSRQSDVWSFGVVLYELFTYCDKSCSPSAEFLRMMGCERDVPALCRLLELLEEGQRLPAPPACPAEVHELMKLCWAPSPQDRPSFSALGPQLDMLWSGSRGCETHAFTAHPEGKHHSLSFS
Procedure: The activity of the JAK1, JAK2, JAK3 or TYK2 kinase domains was measured in vitro by monitoring phosphorylation of JAK3 derived peptides using the Caliper LabChip technology.
as §2, with “JAK3” for “JAK1 or TYK2”, “specifications.” for “specifications. Ki values were then determined using the Morrison tight binding model (Morrison, J. F., Biochim. Biophys. Acta. 185:269-296 (1969); William, J. W. and Morrison, J. F., Meth. Enzymol., 63:437-467 (1979)).”

TF-1 cells [3] = assay: EPO-stimulated STAT5 phosphorylation in TF-1 cells (JAK2-dependent signaling, MSD); format: cell-based; conditions: Homo sapiens, TF-1, 0.5 h, read-out: EPO pSTAT5 TF1 EC50
Procedure: as §1

Row | Structure (SMILES) | EC50 [1] [nM] | EC50 (TF-1 cells [2]) [nM] | EC50 (NK92 cells) [nM] | Ki (human JAK1 kinase domain) [nM] | Ki (human JAK3 kinase domain) [nM] | EC50 (TF-1 cells [3]) [nM]
1 | Cc1ccc(C)c(-c2nn(C)cc2NC(=O)c2cnn3ccc(N)nc23)c1 [Example 225, 5-amino-N-(3-(2,5-dimethylphenyl)-1-methyl-1H-pyrazol-4-yl)pyrazolo[1,5-a]pyrimidine-3-carboxamide] | 12.8 | 130 | 119 | – | – | –
2 | Nc1ccn2ncc(C(=O)Nc3conc3-c3cccc(Cl)c3)c2n1 [Example 250, 5-Amino-pyrazolo[1,5-a]-pyrimidine-3-carboxylic acid [3-(3-chloro-phenyl)-isoxazol-4-yl]-amide] | – | 839 | 105 | 28.4 | 55.6 | 340
